# Measurements reported in US8148407B2, “Compounds derived from 5-thioxylose and their use in therapeutics” (Laboratories Fournier S.A., priority 2005, dated 2012).
row,SMILES,melting point [°C]
1,"O[C@@H]1[C@@H](O)[C@H](Oc2cncc(-c3ccc(F)cc3F)c2)SC[C@H]1O [Example 85, 5-(2,4-difluorophenyl)-3-pyridinyl 5-thio-β-D-xylopyranoside]",221
2,"OCc1ccc(-c2ccc(O[C@@H]3SC[C@@H](O)[C@H](O)[C@H]3O)cn2)cc1 [Example 95, 6-[4-(hydroxymethyl)phenyl]-3-pyridinyl 5-thio-β-D-xylopyranoside]",215
3,"Cc1ccc(-c2cncc(O[C@@H]3SC[C@@H](O)[C@H](O)[C@H]3O)c2)cc1C [Example 109, 5-(3,4-dimethylphenyl)-3-pyridinyl 5-thio-β-D-xylopyranoside]",184
4,"O[C@@H]1[C@@H](O)[C@H](Oc2cccnc2-c2ccc(F)cc2)SC[C@H]1O [Example 73, 2-(4-fluorophenyl)-3-pyridinyl 5-thio-β-D-xylopyranoside]",110
5,"COc1ccc(-c2cncc(O[C@@H]3SC[C@@H](O)[C@H](O)[C@H]3O)c2)cc1Cl [Example 65, 5-(3-chloro-4-methoxyphenyl)-3-pyridinyl 5-thio-β-D-xylopyranoside]",165
6,"CC(C)Oc1ccc(-c2cncc(O[C@@H]3SC[C@@H](O)[C@H](O)[C@H]3O)c2)cc1 [Example 69, 5-[4-(1-methylethoxy)phenyl]-3-pyridinyl 5-thio-β-D-xylopyranoside]",158
7,N#Cc1ccc(-c2cncc(O[C@@H]3SC[C@@H](O)[C@H](O)[C@H]3O)c2)cc1Cl,202 to 204
8,"O[C@@H]1[C@@H](O)[C@H](Oc2cncc(Oc3ccccc3)c2)SC[C@H]1O [Example 26, 5-phenoxy-3-pyridinyl 5-thio-β-D-xylopyranoside]",226
9,"COc1ccc(-c2cncc(O[C@@H]3SC[C@@H](O)[C@H](O)[C@H]3O)c2)cc1OC [Example 71, 5-(3,4-dimethoxyphenyl)-3-pyridinyl 5-thio-β-D-xylopyranoside]",211
10,"COc1ccc(-c2nccc(C)c2O[C@@H]2SC[C@@H](O)[C@H](O)[C@H]2O)cc1 [Example 75, 2-(4-methoxyphenyl)-4-methyl-3-pyridinyl 5-thio-β-D-xylopyranoside]",101
11,"O[C@@H]1[C@@H](O)[C@H](Oc2cncc(-c3ccc(N4CCCCC4)cc3)c2)SC[C@H]1O [Example 48, 5-[4-(1-piperidinyl)phenyl]-3-pyridinyl 5-thio-β-D-xylopyranoside]",196
12,"COc1cccc(-c2cncc(O[C@@H]3SC[C@@H](O)[C@H](O)[C@H]3O)c2)c1 [Example 67, 5-(3-methoxyphenyl)-3-pyridinyl 5-thio-β-D-xylopyranoside]",200
13,"CN(C)c1ccc(-c2cncc(O[C@@H]3SC[C@@H](O)[C@H](O)[C@H]3O)c2)cc1 [Example 50, 5-[4-(dimethylamino)phenyl]-3-pyridinyl 5-thio-β-D-xylopyranoside]",240
14,"O[C@@H]1[C@@H](O)[C@H](Oc2cnccc2-c2ccc(F)cc2)SC[C@H]1O [Example 57, 4-(4-fluorophenyl)-3-pyridinyl 5-thio-β-D-xylopyranoside]",219
15,"COc1ccc(-c2cc(O[C@@H]3SC[C@@H](O)[C@H](O)[C@H]3O)ccn2)cc1 [Example 77, 2-(4-methoxyphenyl)-4-pyridinyl 5-thio-β-D-xylopyranoside]",150 to 154
16,"Cc1ccc(-c2cncc(O[C@@H]3SC[C@@H](O)[C@H](O)[C@H]3O)c2)cc1 [Example 52, 5-(4-methylphenyl)-3-pyridinyl 5-thio-β-D-xylopyranoside]",228
17,"COc1cc(F)ccc1-c1cncc(O[C@@H]2SC[C@@H](O)[C@H](O)[C@H]2O)c1 [Example 87, 5-(4-fluoro-2-methoxyphenyl)-3-pyridinyl 5-thio-β-D-xylopyranoside]",218 to 228
18,"COc1ccc(-c2ccc(O[C@@H]3SC[C@@H](O)[C@H](O)[C@H]3O)cn2)cc1 [Example 93, 6-(4-methoxyphenyl)-3-pyridinyl 5-thio-β-D-xylopyranoside]",164
19,"N#Cc1cc(-c2cncc(O[C@@H]3SC[C@@H](O)[C@H](O)[C@H]3O)c2)ccc1F [Example 63, 5-(3-cyano-4-fluorophenyl)-3-pyridinyl 5-thio-β-D-xylopyranoside]",197
20,"Cc1ccc(-c2cncc(O[C@@H]3SC[C@@H](O)[C@H](O)[C@H]3O)c2)cc1F [Example 107, 5-(3-fluoro-4-methylphenyl)-3-pyridinyl 5-thio-β-D-xylopyranoside]",213
21,"N#Cc1ccc(-c2ccncc2O[C@@H]2SC[C@@H](O)[C@H](O)[C@H]2O)cc1 [Example 28, 4-(4-cyanophenyl)-3-pyridinyl 5-thio-β-D-xylopyranoside]",238
22,"COc1c(C)cc(-c2cncc(O[C@@H]3SC[C@@H](O)[C@H](O)[C@H]3O)c2)cc1C [Example 83, 5-(3,5-dimethyl-4-methoxyphenyl)-3-pyridinyl 5-thio-β-D-xylopyranoside]",173
23,"N#Cc1cccc(-c2cncc(O[C@@H]3SC[C@@H](O)[C@H](O)[C@H]3O)c2)c1 [Example 55, 5-(3-cyanophenyl)-3-pyridinyl 5-thio-β-D-xylopyranoside]",172
24,"COc1ccc(-c2cncc(O[C@@H]3SC[C@@H](O)[C@H](O)[C@H]3O)c2)c(C)c1 [Example 105, 5-(4-methoxy-2-methylphenyl)-3-pyridinyl 5-thio-β-D-xylopyranoside]",231
25,"CC(=O)O[C@@H]1[C@@H](OC(C)=O)[C@H](OC(C)=O)CS[C@H]1Oc1cncc(S(C)(=O)=O)c1 [Example 114, 5-methylsulfonyl-3-pyridinyl 2,3,4-tri-O-acetyl-5-thio-β-D-xylopyranoside]",193
26,"COc1cc(F)c(-c2cncc(O[C@@H]3SC[C@@H](O)[C@H](O)[C@H]3O)c2)c(F)c1 [Example 81, 5-(2,6-difluoro-4-methoxyphenyl)-3-pyridinyl 5-thio-β-D-xylopyranoside]",200
27,"O[C@@H]1[C@@H](O)[C@H](Oc2cccnc2-c2ccccc2)SC[C@H]1O [Example 24, 2-phenyl-3-pyridinyl 5-thio-β-D-xylopyranoside]",89 to 108
28,"CS(=O)(=O)c1cncc(O[C@@H]2SC[C@@H](O)[C@H](O)[C@H]2O)c1 [Example 115, 5-methylsulfonyl-3-pyridinyl 5-thio-β-D-xylopyranoside]",183
29,"COc1ccc(-c2cncc(O[C@@H]3SC[C@@H](O)[C@H](O)[C@H]3O)c2)c(Cl)c1 [Example 113, 5-(2-chloro-4-methoxyphenyl)-3-pyridinyl 5-thio-β-D-xylopyranoside]",218

# The remaining lines, values ahead:
row,melting point [°C],SMILES
1,203,"COc1c(F)cc(-c2cncc(O[C@@H]3SC[C@@H](O)[C@H](O)[C@H]3O)c2)cc1F [Example 146, 5-(3,5-difluoro-4-methoxyphenyl)-3-pyridinyl 5-thio-β-D-xylopyranoside]"
2,198 to 200,"Cc1cc(-c2cncc(O[C@@H]3SC[C@@H](O)[C@H](O)[C@H]3O)c2)ccc1C#N [Example 150, 5-(4-cyano-3-methylphenyl)-3-pyridinyl 5-thio-β-D-xylopyranoside]"
3,86,"O=S(=O)(c1ccccc1)c1cncc(O[C@@H]2SC[C@@H](O)[C@H](O)[C@H]2O)c1 [Example 140, 5-(phenylsulfonyl)-3-pyridinyl 5-thio-β-D-xylopyranoside]"
4,143,"CCN(CC)C(=O)c1cncc(O[C@@H]2SC[C@@H](O)[C@H](O)[C@H]2O)c1 [Example 160, 5-[(N,N-diethylamino)carbonyl]-3-pyridinyl 5-thio-β-D-xylopyranoside]"
5,128 to 133,"CC(=O)c1cccc(-c2ncccc2O[C@@H]2SC[C@@H](O)[C@H](O)[C@H]2O)c1 [Example 128, 2-(3-acetylphenyl)-3-pyridinyl 5-thio-β-D-xylopyranoside]"
6,89 to 91,"O=C(NCc1ccccc1)c1ccc(O[C@@H]2SC[C@@H](O)[C@H](O)[C@H]2O)cn1 [Example 117, 6-{[(phenylmethyl)amino]carbonyl}-3-pyridinyl 5-thio-β-D-xylopyranoside]"
7,114 to 119,"O[C@@H]1[C@@H](O)[C@H](Oc2cccnc2-c2ccc(OC(F)(F)F)cc2)SC[C@H]1O [Example 127, 2-[4-(trifluoromethoxy)phenyl]-3-pyridinyl 5-thio-β-D-xylopyranoside]"
8,147,"Cc1cc(F)ccc1-c1cc(O[C@@H]2SC[C@@H](O)[C@H](O)[C@H]2O)ccn1 [Example 162, 2-(4-fluoro-2-methylphenyl)-4-pyridinyl 5-thio-β-D-xylopyranoside]"
9,93 to 96,"O=S(=O)(c1ccc(F)cc1)c1cncc(O[C@@H]2SC[C@@H](O)[C@H](O)[C@H]2O)c1 [Example 142, 5-[(4-fluorophenyl)sulfonyl]-3-pyridinyl 5-thio-β-D-xylopyranoside]"
10,228,"O[C@@H]1[C@@H](O)[C@H](Oc2cncc(-c3c(F)cc(F)cc3F)c2)SC[C@H]1O [Example 144, 5-(2,4,6-trifluorophenyl)-3-pyridinyl 5-thio-β-D-xylopyranoside]"
11,184 to 186,"O[C@@H]1[C@@H](O)[C@H](Oc2ccc(-c3ccc(OC(F)(F)F)cc3)nc2)SC[C@H]1O [Example 125, 6-[4-(trifluoromethoxy)phenyl]-3-pyridinyl 5-thio-β-D-xylopyranoside]"
12,159 to 163,"CC(=O)c1cccc(-c2ccc(O[C@@H]3SC[C@@H](O)[C@H](O)[C@H]3O)cn2)c1 [Example 124, 6-(3-acetylphenyl)-3-pyridinyl 5-thio-β-D-xylopyranoside]"
13,198 to 200,"N#Cc1cc(F)ccc1-c1cncc(O[C@@H]2SC[C@@H](O)[C@H](O)[C@H]2O)c1 [Example 148, 5-(2-cyano-4-fluorophenyl)-3-pyridinyl 5-thio-β-D-xylopyranoside]"
14,180 to 183,"O[C@@H]1[C@@H](O)[C@H](Oc2ccc(-c3ccc(F)cc3)nc2)SC[C@H]1O [Example 129, 6-(4-fluorophenyl)-3-pyridinyl 5-thio-β-D-xylopyranoside]"
